Active and inactive are the calls of the source.
Columns and labels:
Vero = assay: viability of Vero cells under compound – cytotoxicity control for flavivirus capping enzyme inhibitors (AID 588742); assay type: functional; details: Chlorocebus sabaeus
[1] = target: T1, High affinity choline transporter 1 (Homo sapiens, UniProt Q9GZV3); assay: human choline transporter blockers, potency – cell-based, 5-point CRC, membrane potential dye, dose response (AID 504840); assay type: functional
T1 sequence (Q9GZV3 whole entry): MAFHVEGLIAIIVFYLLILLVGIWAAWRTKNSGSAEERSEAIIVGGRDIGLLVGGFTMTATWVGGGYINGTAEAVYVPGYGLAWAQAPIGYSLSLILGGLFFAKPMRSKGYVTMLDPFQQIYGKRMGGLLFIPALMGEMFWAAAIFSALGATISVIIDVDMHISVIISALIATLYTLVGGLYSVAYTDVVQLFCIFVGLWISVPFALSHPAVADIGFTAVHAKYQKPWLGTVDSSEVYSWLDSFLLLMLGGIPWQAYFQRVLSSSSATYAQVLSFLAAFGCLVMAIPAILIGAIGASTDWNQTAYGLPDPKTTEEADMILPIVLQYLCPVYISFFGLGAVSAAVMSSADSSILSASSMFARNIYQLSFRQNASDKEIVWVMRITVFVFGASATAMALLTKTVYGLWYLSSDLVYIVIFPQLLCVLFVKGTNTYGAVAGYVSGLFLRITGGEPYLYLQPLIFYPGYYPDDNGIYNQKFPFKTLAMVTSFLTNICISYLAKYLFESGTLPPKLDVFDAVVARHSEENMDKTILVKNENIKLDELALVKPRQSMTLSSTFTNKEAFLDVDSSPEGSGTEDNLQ

[2] = target: T1, High affinity choline transporter 1; assay: human choline transporter blockers, potency – cell-based, 10-point CRC, membrane potential dye, dose response (AID 588401); assay type: functional;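 note: membrane potential dye fluorescence of choline-evoked depolarization via CHT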
A-375 [3] = assay: MITF: Counter assay: A375 proliferation Measured in Cell-Based System Using Plate Reader - 2084-03_Inhibitor_Dose_DryPowder_Activity. [Related pubchem assays (depositor defined):AID488944]; assay type: functional; details: Homo sapiens
A-375 [4] = assay: proliferation inhibition in MITF-low A375 cells – cell-based, cherry-pick samples, set 2, counter-screen for MITF modulator project, dose response (AID 540335); assay type: functional; details: Homo sapiens
[5] = target: T2, Apoptotic protease-activating factor 1 (Homo sapiens, UniProt O14727); assay: SAR analysis of small molecule Activators of Apaf-1 in a Fluorescent assay.; assay type: functional; details: read-out: EC50_Mean;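 note: caspase-3 cleavage of fluorogenic Rh110 DEVD substrate downstream of apoptosome activation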
T2 sequence (O14727 whole entry): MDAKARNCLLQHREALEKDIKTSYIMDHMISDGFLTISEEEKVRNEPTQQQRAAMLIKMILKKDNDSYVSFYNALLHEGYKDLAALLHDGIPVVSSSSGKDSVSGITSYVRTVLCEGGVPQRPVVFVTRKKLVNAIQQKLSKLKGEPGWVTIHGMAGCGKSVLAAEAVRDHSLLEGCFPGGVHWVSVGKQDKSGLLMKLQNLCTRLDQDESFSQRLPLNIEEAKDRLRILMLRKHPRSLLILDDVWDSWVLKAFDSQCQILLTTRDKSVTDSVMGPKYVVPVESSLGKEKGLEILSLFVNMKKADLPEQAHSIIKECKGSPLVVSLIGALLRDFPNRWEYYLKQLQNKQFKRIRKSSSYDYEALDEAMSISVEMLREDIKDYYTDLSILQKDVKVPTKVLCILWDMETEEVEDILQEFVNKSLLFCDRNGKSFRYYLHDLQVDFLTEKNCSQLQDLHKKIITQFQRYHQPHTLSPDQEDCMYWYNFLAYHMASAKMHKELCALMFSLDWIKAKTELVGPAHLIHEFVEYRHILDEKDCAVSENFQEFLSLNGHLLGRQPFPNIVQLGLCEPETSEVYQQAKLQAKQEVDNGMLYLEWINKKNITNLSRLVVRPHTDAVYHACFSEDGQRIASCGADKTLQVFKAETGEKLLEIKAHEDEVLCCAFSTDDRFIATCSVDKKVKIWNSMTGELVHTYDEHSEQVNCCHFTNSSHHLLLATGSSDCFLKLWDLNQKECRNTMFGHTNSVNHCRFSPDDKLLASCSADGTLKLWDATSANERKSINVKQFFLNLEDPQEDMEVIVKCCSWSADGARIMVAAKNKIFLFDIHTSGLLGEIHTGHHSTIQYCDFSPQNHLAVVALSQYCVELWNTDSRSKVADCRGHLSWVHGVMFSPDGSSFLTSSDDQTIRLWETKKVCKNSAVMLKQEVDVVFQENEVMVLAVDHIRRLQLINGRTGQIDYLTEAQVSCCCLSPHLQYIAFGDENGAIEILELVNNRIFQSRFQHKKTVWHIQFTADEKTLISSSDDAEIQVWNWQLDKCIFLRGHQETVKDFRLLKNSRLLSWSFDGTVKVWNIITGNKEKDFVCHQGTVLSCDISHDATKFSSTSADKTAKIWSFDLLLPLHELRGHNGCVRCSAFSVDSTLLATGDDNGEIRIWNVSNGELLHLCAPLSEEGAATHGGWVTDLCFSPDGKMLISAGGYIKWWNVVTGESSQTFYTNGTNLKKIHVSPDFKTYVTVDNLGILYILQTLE

[6] = microbe, parasite or virus in culture; assay type: functional; details: Mycobacterium tuberculosis
[7] = NIH-3T3 fibroblast cytotoxicity, dose response, cytotoxicity control, cell-based, fluorescence, Alamar Blue, secondary assay (AID 2327); assay type: functional;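 note: NIH-3T3 mouse fibroblasts cultured with fluconazole at 8 µg/mL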
[8] = fluconazole-exposed Candida albicans growth modulators – fluorescence, retest, confirmation (AID 2467); assay type: functional, cell-based
[9] = target: T3, Serine/threonine-protein phosphatase (Candida dubliniensis (strain CD36 / CBS 7987 / NCPF 3949 / NRRLY-17841) (Yeast), UniProt B9W6M3); assay: blockers of CaCl2-induced CDRE-lacZ signaling – S. cerevisiae, luminescence, secondary, dose response (AID 2388); assay type: functional, cell-based;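 note: yeast reporter cells carrying a calcineurin-responsive lacZ construct stimulated with calcium chloride; luminescent beta-galactosidase reporter signal in whole cells rather than isolated phosphatase activity; potency for inhibition where a drop in reporter signal means calcineurin blockade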
T3 sequence (B9W6M3 whole entry): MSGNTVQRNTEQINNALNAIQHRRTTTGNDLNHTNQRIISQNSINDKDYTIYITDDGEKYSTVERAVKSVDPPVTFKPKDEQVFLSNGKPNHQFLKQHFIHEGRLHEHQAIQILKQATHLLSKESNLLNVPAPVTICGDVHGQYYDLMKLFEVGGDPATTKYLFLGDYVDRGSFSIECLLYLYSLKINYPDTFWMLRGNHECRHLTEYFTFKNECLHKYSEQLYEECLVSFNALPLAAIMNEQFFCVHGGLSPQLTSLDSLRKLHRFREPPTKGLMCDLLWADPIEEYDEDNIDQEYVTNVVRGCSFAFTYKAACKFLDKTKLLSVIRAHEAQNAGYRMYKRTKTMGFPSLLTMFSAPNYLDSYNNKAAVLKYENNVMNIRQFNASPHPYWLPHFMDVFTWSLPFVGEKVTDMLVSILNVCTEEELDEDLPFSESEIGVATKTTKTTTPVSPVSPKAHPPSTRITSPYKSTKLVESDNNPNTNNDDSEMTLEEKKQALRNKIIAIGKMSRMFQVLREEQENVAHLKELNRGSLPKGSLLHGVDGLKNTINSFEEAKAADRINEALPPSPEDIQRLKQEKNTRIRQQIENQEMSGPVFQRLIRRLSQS

INS1 = assay: INS-1E survival protection against cytokine death – cell-based, luminescence, retest, dose response (AID 449756); assay type: functional; details: Rattus norvegicus;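 note: cell death triggered by IL-1 beta plus TNF-alpha plus IFN-gamma mixture; protective hits raise ATP signal compared with cytokine alone wells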
[10] = target: ATP-dependent molecular chaperone HSP82 (Candida albicans (strain WO-1) (Yeast), UniProt C4YTQ8); assay: steroid-induced GRE reporter decrease in yeast – S. cerevisiae, luminescence, Hsp90 inhibitor project, dose response (AID 2400); assay type: functional, cell-based;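 note: beta-galactosidase luminescence from glucocorticoid response element reporter as proxy for Hsp90 function; inhibitor potency where signal loss means Hsp90 inhibition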
Protein skinhead-1 = target: T4, Protein skinhead-1 (Caenorhabditis elegans, UniProt P34707); assay type: functional
T4 sequence (P34707 whole entry): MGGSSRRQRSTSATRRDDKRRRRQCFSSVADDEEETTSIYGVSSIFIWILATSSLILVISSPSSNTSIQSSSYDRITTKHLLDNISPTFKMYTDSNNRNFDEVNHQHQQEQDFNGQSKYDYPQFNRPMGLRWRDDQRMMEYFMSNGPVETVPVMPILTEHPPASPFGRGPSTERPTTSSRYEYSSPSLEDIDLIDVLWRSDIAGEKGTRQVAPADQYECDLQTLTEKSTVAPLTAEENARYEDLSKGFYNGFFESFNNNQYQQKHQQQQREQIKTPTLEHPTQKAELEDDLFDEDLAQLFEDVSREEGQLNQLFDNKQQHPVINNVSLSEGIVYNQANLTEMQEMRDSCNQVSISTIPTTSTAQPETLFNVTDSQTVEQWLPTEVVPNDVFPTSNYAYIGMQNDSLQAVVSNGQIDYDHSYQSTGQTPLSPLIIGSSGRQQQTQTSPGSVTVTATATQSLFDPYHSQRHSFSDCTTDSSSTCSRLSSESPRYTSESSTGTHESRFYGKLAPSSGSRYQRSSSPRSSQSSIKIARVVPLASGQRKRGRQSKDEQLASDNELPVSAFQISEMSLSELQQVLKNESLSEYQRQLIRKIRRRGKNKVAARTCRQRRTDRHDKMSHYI

Orexin receptor type 2 [11] = target: T5, Orexin receptor type 2 (Homo sapiens, UniProt O43614); assay: Counterscreen assay for antagonists of the orexin 1 receptor (OX1R; HCRTR1): Fluorescence-based cell-based dose response assay for antagonists of the orexin 2 receptor (OX2R; HCRTR2), run by assay provider.; assay type: functional
T5 sequence (O43614 whole entry): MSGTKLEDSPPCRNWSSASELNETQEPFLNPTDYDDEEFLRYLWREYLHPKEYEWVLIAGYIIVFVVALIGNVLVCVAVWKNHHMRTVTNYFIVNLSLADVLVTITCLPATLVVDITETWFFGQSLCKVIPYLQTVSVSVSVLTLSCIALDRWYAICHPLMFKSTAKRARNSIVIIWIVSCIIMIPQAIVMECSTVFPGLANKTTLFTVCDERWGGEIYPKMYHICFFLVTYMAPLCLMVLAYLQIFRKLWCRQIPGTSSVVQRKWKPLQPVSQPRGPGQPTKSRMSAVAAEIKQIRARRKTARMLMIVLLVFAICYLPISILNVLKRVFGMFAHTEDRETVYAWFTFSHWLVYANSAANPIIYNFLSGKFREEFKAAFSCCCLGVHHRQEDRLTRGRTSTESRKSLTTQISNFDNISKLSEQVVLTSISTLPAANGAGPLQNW

Orexin receptor type 2 [12] = target: T5, Orexin receptor type 2; assay: Counterscreen assay for antagonists of the orexin 1 receptor (OX1R; HCRTR1): Homogeneous Time Resolved Fluorescence (HTRF)-based cell-based dose response assay for antagonists of the orexin 2 receptor (OX2R; HCRTR2), run by assay provider.; assay type: functional

Chain of ATP-dependent molecular chaperone HSP82 (C4YTQ8 whole entry): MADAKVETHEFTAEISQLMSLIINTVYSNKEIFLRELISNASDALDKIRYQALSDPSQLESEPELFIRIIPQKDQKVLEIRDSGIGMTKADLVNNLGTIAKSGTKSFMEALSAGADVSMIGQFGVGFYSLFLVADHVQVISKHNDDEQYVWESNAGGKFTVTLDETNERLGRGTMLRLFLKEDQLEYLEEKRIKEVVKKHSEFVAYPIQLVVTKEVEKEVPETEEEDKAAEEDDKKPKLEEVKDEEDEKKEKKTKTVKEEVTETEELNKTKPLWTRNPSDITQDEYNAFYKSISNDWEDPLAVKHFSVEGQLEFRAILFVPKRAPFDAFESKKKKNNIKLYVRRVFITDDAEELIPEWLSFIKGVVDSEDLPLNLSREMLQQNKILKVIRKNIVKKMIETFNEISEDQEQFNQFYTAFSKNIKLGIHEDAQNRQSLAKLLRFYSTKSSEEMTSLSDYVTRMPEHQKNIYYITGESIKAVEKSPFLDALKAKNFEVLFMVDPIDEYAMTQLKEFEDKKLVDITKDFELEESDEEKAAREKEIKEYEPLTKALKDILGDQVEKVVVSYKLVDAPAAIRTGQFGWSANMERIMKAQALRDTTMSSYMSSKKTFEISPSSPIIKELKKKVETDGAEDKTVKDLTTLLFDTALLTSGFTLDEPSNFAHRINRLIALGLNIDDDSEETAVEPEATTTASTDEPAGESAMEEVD

COc1ccc(CC2=C(O)C(=O)c3ccccc3C2=O)cc1
CC50 (Vero): > 40 µM (active)

O=C(NC1CCCCCCC1)c1ccc(CNc2c(N3CCOCC3)c(=O)c2=O)cc1
IC50 [1]: 0.875 µM (active)
IC50 [2]: 2.01 µM (active)

COc1ccc(CN2CCN(C(C)C)C(CCO)C2)cc1Cn1cccn1 (stereo unspecified)
IC50 [1]: 3.31 µM (active)
IC50 [2]: 1.41 µM (active)

O=C(Nc1nc2ccsc2c(=O)s1)C1CCC1
AC50 (A-375 [3]): > 35 µM (active)
AC50 (A-375 [4]): > 35 µM (active)
EC50 [5]: > 100 µM (inactive)

COc1ccc(NS(=O)(=O)c2ccc(NC(=O)c3ccccc3Br)cc2)nn1
IC50 [1]: 10.3 µM (active)
IC50 [2]: 5.01 µM (active)

Cc1sc2nc3c4ccccc4c(NCc4ccco4)nn3c(=O)c2c1C
CC50 [6]: 37.6 µM (active)
CC50 (Vero): > 40 µM (active)

COc1cccc(COc2cc3ccccc3nc2C)c1
EC50 [7]: > 150 µM (inconclusive)
EC50 [8]: 0.914 µM (active)
EC50 [9]: > 180 µM (inactive)
AC50 (INS1): 2.61 µM (active)
EC50 [10]: > 160 µM (inactive)
IC50 (Protein skinhead-1): 80.1 µM (inactive)

CCOc1ccccc1C(=O)NCCCCNC(=O)c1ccccc1OCC
IC50 (Orexin receptor type 2 [11]): > 88.8 µM (inactive)
IC50 (Orexin receptor type 2 [12]): > 50 µM (inactive)

Cc1nc(C(F)(F)F)ccc1C(=O)Nc1nc2ccsc2c(=O)s1
EC50 [5]: > 100 µM (inactive)

From ChEMBL document CHEMBL1201862, “PubChem BioAssay data set” (2004)
